Measurements as given in DBAASP.
Converted amounts (≈) assume the structure as drawn.

How the values were obtained:
Test in all cases: ≥ marks a high value that may be exact or a test limit, other limits are often not marked, values filed in µg/mL are converted to µM
[1] = test system: Pseudomonas aeruginosa PAK
[2] = test system: Streptococcus mitis ATCC 903
[3] = test system: Staphylococcus aureus
[4] = test system: Streptococcus mutans UA159
[5] = test system: Streptococcus gordonii Challis DL1
[6] = test system: Streptococcus sanguinis NY101
[7] = test system: Escherichia coli ATCC 25922
[8] = test system: Staphylococcus aureus ATCC 6538P
[9] = test system: Shigella dysenteriae ATCC 9752
[10] = test system: Staphylococcus epidermidis ATCC 12228
[11] = test system: Micrococcus luteus ATCC 10240
[12] = test system: Staphylococcus aureus TK784
[13] = test system: Bacillus subtilis ATCC 6633
[14] = test system: Salmonella enterica subsp. enterica serovar Typhimurium ATCC 14028
[15] = test system: Klebsiella pneumoniae ATCC 10031
[16] = test system: Pseudomonas aeruginosa ATCC 27853
[17] = test system: Staphylococcus aureus ATCC BAA-1556
[18] = test system: Acinetobacter baumannii 9931
[19] = test system: Staphylococcus aureus 113
[20] = test system: Pseudomonas aeruginosa 73
[21] = test system: Escherichia coli 780
[22] = test system: Acinetobacter baumannii ATCC 19606
[23] = test system: Pseudomonas aeruginosa ATCC 9027
[24] = test system: Escherichia coli 804
[25] = test system: Pseudomonas aeruginosa 50
[26] = test system: Bacillus subtilis ATCC 23857
[27] = test system: Klebsiella pneumoniae ATCC 700603
[28] = test system: Staphylococcus aureus ATCC 29213
[29] = test system: Staphylococcus aureus 75
[30] = test system: Acinetobacter baumannii 97830
[31] = test system: Escherichia coli LMG 15862
[32] = test system: Klebsiella aerogenes LMG 02094
[33] = test system: Klebsiella pneumoniae LMG 20218
[34] = test system: Pseudomonas aeruginosa LMG 6395
[35] = test system: Acinetobacter baumannii LMG 01041

CC[C@H](C)[C@H](NC(=O)[C@H](Cc1ccccc1)NC(=O)[C@H](Cc1cnc[nH]1)NC(=O)[C@H](CCCCN)NC(=O)[C@@H](NC(=O)[C@@H](N)Cc1ccccc1)[C@@H](C)CC)C(=O)N[C@@H](Cc1cnc[nH]1)C(=O)N[C@@H](CCCN=C(N)N)C(=O)N[C@@H](Cc1ccccc1)C(=O)N[C@@H](CO)C(=O)NCC(=O)NCC(=O)N[C@@H](CCCN=C(N)N)C(=O)N[C@@H](Cc1c[nH]c2ccccc12)C(=O)N[C@@H](CCCN=C(N)N)C(=O)N[C@@H](Cc1c[nH]c2ccccc12)C(=O)N[C@@H](CCCN=C(N)N)C(=O)N[C@@H](Cc1c[nH]c2ccccc12)C(=O)N[C@@H](Cc1ccccc1)C(N)=O [FIKHFIHRFSGGRWRWRWF]
MIC [1]: 23.9 µM (≈ 62.5 µg/mL) | MIC [2]: 12.2 µM (≈ 32 µg/mL) | MIC [3]: 12.2 µM (≈ 32 µg/mL) | MIC [4]: 3.05 µM (≈ 8 µg/mL) | MIC [5]: 12.2 µM (≈ 32 µg/mL) | MIC [6]: 12.2 µM (≈ 32 µg/mL)

CC(C)C[C@H](NC(=O)[C@H](CC(C)C)NC(=O)[C@H](CCCCN)NC(=O)[C@H](CCCCN)NC(=O)[C@H](CC(C)C)NC(=O)[C@H](CC(C)C)NC(=O)[C@H](CCCCN)NC(=O)[C@H](CCCCN)NC(=O)[C@H](CC(C)C)NC(=O)[C@H](Cc1c[nH]c2ccccc12)NC(=O)[C@@H](N)CCCCN)C(N)=O [KWLKKLLKKLL]
MIC [7]: 1.42 µM (≈ 2 µg/mL) | MIC [8]: 1.42 µM (≈ 2 µg/mL) | MIC [9]: 0.709 µM (≈ 0.999 µg/mL) | MIC [10]: 1.42 µM (≈ 2 µg/mL) | MIC [11]: 2.84 µM (≈ 4 µg/mL) | MIC [12]: 5.67 µM (≈ 7.99 µg/mL) | MIC [13]: 1.42 µM (≈ 2 µg/mL) | MIC [14]: 1.42 µM (≈ 2 µg/mL) | MIC [15]: 1.42 µM (≈ 2 µg/mL) | MIC [16]: 5.67 µM (≈ 7.99 µg/mL)

CC(C)C[C@H](NC(=O)[C@H](CC(C)C)NC(=O)[C@H](CC(C)C)NC(=O)[C@H](CC(C)C)NC(=O)[C@H](CC(C)C)NC(=O)[C@H](CC(C)C)NC(=O)[C@H](CCCCN)NC(=O)[C@H](CCCCN)NC(=O)[C@@H](N)CC(C)C)C(N)=O [LKKLLLLLL]
MIC [17]: ≥ 100 µM

CC(C)C[C@H](NC(=O)[C@H](CCCCN)NC(=O)[C@H](CC(C)C)NC(=O)[C@H](CC(C)C)NC(=O)[C@H](CC(C)C)NC(=O)[C@H](CC(C)C)NC(=O)[C@H](CC(C)C)NC(=O)[C@H](CCCCN)NC(=O)[C@@H](N)CC(C)C)C(N)=O [LKLLLLLKL]
MIC [17]: ≥ 100 µM

CC(C)C[C@H](NC(=O)[C@H](CC(C)C)NC(=O)[C@H](CC(C)C)NC(=O)[C@H](CCCCN)NC(=O)[C@H](CC(C)C)NC(=O)[C@H](CC(C)C)NC(=O)[C@H](CC(C)C)NC(=O)[C@@H](N)CC(C)C)C(=O)N[C@@H](CCCCN)C(N)=O [LLLLKLLLK]
MIC [17]: ≥ 100 µM

CC(C)C[C@H](NC(=O)[C@H](CCCN=C(N)N)NC(=O)[C@H](CCCN=C(N)N)NC(=O)[C@H](Cc1c[nH]c2ccccc12)NC(=O)[C@H](Cc1c[nH]c2ccccc12)NC(=O)[C@H](Cc1c[nH]c2ccccc12)NC(=O)[C@H](CCCN=C(N)N)NC(=O)[C@H](CCCN=C(N)N)NC(=O)[C@@H](N)CC(C)C)C(N)=O [LRRWWWRRL]
MIC [18]: 16 µM (≈ 22.8 µg/mL) | MIC [19]: 4 µM (≈ 5.71 µg/mL) | MIC [20]: ≥ 64 µM | MIC [21]: 8 µM (≈ 11.4 µg/mL) | MIC [22]: 64 µM (≈ 91.3 µg/mL) | MIC [10]: 2 µM (≈ 2.85 µg/mL) | MIC [23]: 16 µM (≈ 22.8 µg/mL) | MIC [24]: ≥ 32 µM | MIC [25]: 8 µM (≈ 11.4 µg/mL) | MIC [26]: 2 µM (≈ 2.85 µg/mL) | MIC [27]: 32 µM (≈ 45.7 µg/mL) | MIC [16]: 16 µM (≈ 22.8 µg/mL) | MIC [28]: 4 µM (≈ 5.71 µg/mL) | MIC [29]: 4 µM (≈ 5.71 µg/mL) | MIC [30]: 16 µM (≈ 22.8 µg/mL)

CC(C)C[C@H](NC(=O)[C@H](CCCN=C(N)N)NC(=O)[C@H](Cc1c[nH]c2ccccc12)NC(=O)[C@H](Cc1c[nH]c2ccccc12)NC(=O)[C@H](Cc1c[nH]c2ccccc12)NC(=O)[C@H](CCCN=C(N)N)NC(=O)[C@@H](N)CC(C)C)C(N)=O [LRWWWRL]
MIC [18]: 16 µM (≈ 17.8 µg/mL) | MIC [19]: 8 µM (≈ 8.91 µg/mL) | MIC [20]: ≥ 32 µM | MIC [21]: 16 µM (≈ 17.8 µg/mL) | MIC [22]: 64 µM (≈ 71.3 µg/mL) | MIC [10]: 8 µM (≈ 8.91 µg/mL) | MIC [23]: 32 µM (≈ 35.7 µg/mL) | MIC [24]: 16 µM (≈ 17.8 µg/mL) | MIC [25]: 16 µM (≈ 17.8 µg/mL) | MIC [26]: 8 µM (≈ 8.91 µg/mL) | MIC [27]: 32 µM (≈ 35.7 µg/mL) | MIC [16]: 16 µM (≈ 17.8 µg/mL) | MIC [28]: 4 µM (≈ 4.46 µg/mL) | MIC [29]: 4 µM (≈ 4.46 µg/mL) | MIC [30]: 16 µM (≈ 17.8 µg/mL)

CC[C@H](C)[C@H](NC(=O)[C@H](CCCN=C(N)N)NC(=O)[C@H](CCCN=C(N)N)NC(=O)[C@H](CCCCN)NC(=O)[C@@H](NC(=O)[C@@H](N)CCCN=C(N)N)[C@@H](C)CC)C(=O)N[C@@H](CCCCN)C(=O)N[C@@H](CCCCN)C(=O)N[C@@H](Cc1c[nH]c2ccccc12)C(=O)N[C@@H](CC(C)C)C(=O)N[C@@H](CCCN=C(N)N)C(N)=O [RIKRRIKKWLR]
MIC [31]: 24 µM (≈ 37.2 µg/mL) | MIC [32]: ≥ 256 µM | MIC [33]: ≥ 256 µM | MIC [34]: ≥ 32 µM | MIC [35]: ≥ 256 µM

CC[C@H](C)[C@H](NC(=O)[C@H](CCCN=C(N)N)NC(=O)[C@H](CCC(N)=O)NC(=O)[C@@H](NC(=O)[C@@H](NC(=O)[C@@H](N)CCCN=C(N)N)[C@@H](C)CC)C(C)C)C(=O)N[C@@H](CCCCN)C(=O)N[C@@H](CCCCN)C(=O)N[C@@H](Cc1c[nH]c2ccccc12)C(=O)N[C@@H](CC(C)C)C(=O)N[C@@H](CCCN=C(N)N)C(N)=O [RIVQRIKKWLR]
MIC [31]: 12 µM (≈ 17.9 µg/mL) | MIC [32]: ≥ 128 µM | MIC [33]: ≥ 32 µM | MIC [34]: 16 µM (≈ 23.9 µg/mL) | MIC [35]: ≥ 64 µM

CC[C@H](C)[C@H](NC(=O)[C@H](CCCN=C(N)N)NC(=O)[C@H](CCC(N)=O)NC(=O)[C@@H](NC(=O)[C@@H](NC(=O)[C@@H](N)CCCN=C(N)N)[C@@H](C)CC)C(C)C)C(=O)N[C@@H](CCCCN)C(=O)N[C@@H](CCCCN)C(=O)N[C@@H](Cc1c[nH]c2ccccc12)C(=O)N[C@@H](CCCN=C(N)N)C(N)=O [RIVQRIKKWR]
MIC [31]: ≥ 256 µM | MIC [32]: ≥ 256 µM | MIC [33]: ≥ 256 µM | MIC [34]: ≥ 256 µM | MIC [35]: ≥ 256 µM

NC(=O)[C@H](Cc1c[nH]c2ccccc12)NC(=O)[C@H](Cc1c[nH]c2ccccc12)NC(=O)[C@H](CCCN=C(N)N)NC(=O)[C@H](Cc1c[nH]c2ccccc12)NC(=O)[C@H](Cc1c[nH]c2ccccc12)NC(=O)[C@H](Cc1c[nH]c2ccccc12)NC(=O)[C@H](CCCN=C(N)N)NC(=O)[C@H](Cc1c[nH]c2ccccc12)NC(=O)[C@@H](N)Cc1c[nH]c2ccccc12 [WWRWWWRWW]
MIC [18]: ≥ 32 µM | MIC [19]: 16 µM (≈ 26.1 µg/mL) | MIC [20]: ≥ 128 µM | MIC [21]: ≥ 64 µM | MIC [22]: > 128 µM | MIC [10]: 4 µM (≈ 6.53 µg/mL) | MIC [23]: > 128 µM | MIC [24]: ≥ 64 µM | MIC [25]: ≥ 128 µM | MIC [26]: 4 µM (≈ 6.53 µg/mL) | MIC [27]: 32 µM (≈ 52.3 µg/mL) | MIC [16]: > 128 µM | MIC [28]: 8 µM (≈ 13.1 µg/mL) | MIC [29]: 8 µM (≈ 13.1 µg/mL) | MIC [30]: ≥ 64 µM
